# Like-named read-outs stand apart in the source and are kept apart here.
# Legend:
# [1] = tested on: SKOV3; assay: CCK-8 cell viability assay; type: cell-based; conditions: Homo sapiens, SK-OV-3, SKOV3, 40 μM, 48 h, read-out: Cell viability (100%), 40 μM, 48 h, SKOV3
# Experimental: (§1) In order to investigate the anticancer activity of new synthetic 1,4-benzoxazinone-linked 1,2,3-triazole compounds, we chose several cancer cell lines, including A549 (lung), Huh7 (liver), MCF-7 (breast), HCT-116 (colon), and SKOV3 (ovary), and measured cell viability using the CCK-8 assay. Cells were exposed to 40 μM of the compounds for 48 h, and then cell viability was determined. […] In addition, we used the reference drug gefitinib as a positive control and measured its cell viability on different cell lines. […] We used BEAS-2B cells as a normal cell line to determine the toxic effects of these compounds on normal cells. […] Furthermore, we evaluated the IC50 of these compounds in A549.
# (§2) Human cancer cell lines A549, Huh7, MCF-7, HCT-116, and SKOV3 were obtained from ATCC. The cells were cultured in DMEM or RPMI 1640 medium supplemented with 10% FBS and 1% penicillin/streptomycin and incubated at 37°C in a CO2-humidified atmosphere.
# (§3) Cells were cultured in DMEM or RPMI 1640 medium containing 10% FBS and 1% penicillin/streptomycin at 37°C and 5% CO2. The CCK-8 assay was performed on several human cancer cell lines, including A549, Huh7, MCF-7, HCT-116, and SKOV3, according to the manufacturer’s instructions. Cells were plated at a density of 5 × 10^3 cells per well in a 96-well plate. After 24 h of incubation, cells were treated with 40 μM compounds for 48 h. Cell viability was assessed by adding 10 μL of CCK-8 reagent, dissolved in the cell culture medium, and incubating for 1 h. Absorbance was measured at 450 nm using a microplate reader. IC50 values were determined using a dose-response curve with six concentrations (0, 10, 20, 40, 80, and 160 μM), and IC50 values were calculated using GraphPad Prism software.
# [2] = tested on: HCT-116; assay: CCK-8 cell viability assay; type: cell-based; conditions: Homo sapiens, HCT-116, 40 μM, 48 h, read-out: Cell viability (100%), 40 μM, 48 h, HCT-116
# Experimental: as §1, §2, §3
# [3] = tested on: MCF-7; assay: CCK-8 cell viability assay; type: cell-based; conditions: Homo sapiens, MCF7, MCF-7, 40 μM, 48 h, read-out: Cell viability (100%), 40 μM, 48 h, MCF-7
# Experimental: as §1, §2, §3
# [4] = tested on: Huh7; assay: CCK-8 cell viability assay; type: cell-based; conditions: Homo sapiens, Huh-7, Huh7, 40 μM, 48 h, read-out: Cell viability (100%), 40 μM, 48 h, Huh7
# Experimental: as §1, §2, §3
# [5] = tested on: A549 cells; assay: Calcein AM/PI live/dead viability assay; type: cell-based, human; conditions: 24 h
# Experimental: To investigate the role of 14b and 14c in regulating cell proliferation and death, A549 cells were treated with different concentrations of compounds for 24 h, and the live/dead cell numbers were then observed by staining with calcein AM and propidium iodide.
# FIGURE 4 Compound 14b and 14c increased dead cells and decreased live cells. (A–B) A549 cells were treated with different concentrations of 14b and 14c (5 μM, 10 μM, and 20 μM) for 24 h (C–D) BEAS-2B cells were treated with different concentrations of 14b and 14c (5 μM, 10 μM, and 20 μM) for 24 h. Live and dead cell numbers were stained with calcein in AM and PI, respectively, and cells were observed by confocal microscopy. Data are presented as mean ± SEM, *P < 0.05.
# The live/dead viability assay was performed using the Calcein/PI Live/Dead Viability Assay Kit. A549 cells were plated at a density of 5 × 10^3 cells per well in a 96-well plate and allowed to adhere overnight. Compounds were then added at concentrations of 0, 5, 10, or 20 μM for 24 h. After replacing the medium with fresh culture medium containing Calcein AM and propidium iodide, the cells were incubated for 30 min at 37°C in the dark. Live and dead cells were observed and photographed using a confocal microscope.
# [6] = CCK-8 cell viability assay, normal cell line; type: cell-based; conditions: human, BEAS-2B cells (normal cell line), BEAS-2B normal cell line, read-out: Cell viability (100%), 40 μM, 48 h, BEAS-2B
# Experimental: as §1, §3
# [7] = tested on: A549 cells; assay: Western blot analysis of autophagy, DNA damage and cell cycle proteins; type: cell-based, human; conditions: A549, 5, 10, 20 μM, 48 h
# Experimental: Next, we measured the expression of key proteins involved in autophagy, DNA damage, and cell cycle progression in 14b and 14c compound-exposed cells. After treatment for 48 h, cell proteins were collected and measured by Western blot. […] Proteins in cell cycle progression, including cyclin D, cyclin E, and β-catenin, however, were not affected in the 14 b compound exposure group compared with the control group. […] However, the key regulators involved in autophagy and cell cycle progression, such as LC3, cyclin D, cyclin E, and β-catenin, were not changed.
# FIGURE 7 Compounds 14b and 14c affected DNA damage and autophagy. A549 cells were treated with different concentrations of 14b (A) and 14c (B) (5 μM, 10 μM, and 20 μM) for 48 h. Protein expressions were analyzed by Western blot. Top: Western blot of LC3, γ-H2AX, PARP, cyclin D, cyclin E, and β-catenin. Bottom: quantitative measurements relative to ACTIN. Data are presented as mean ± SEM, *P < 0.05.
# The following antibodies were used for Western blot analysis: LC3, γ-H2AX, PARP, cyclin D, cyclin E, β-Catenin, and β-actin. Cells were treated with compounds (0, 5, 10, and 20 μM) for 48 h, and total cell proteins were extracted using RIPA buffer containing a protease/phosphatase inhibitor cocktail. Protein expression levels were measured and analyzed by Western blotting.
# [8] = tested on: A549 cells; assay: Autophagy staining assay (MDC probe); type: cell-based, human; conditions: A549, 10, 20, and 30 μM, 24 h
# Experimental: To further evaluate the role of 2H-1,4-benzoxazin-3(4H)-one-linked 1,2,3-Triazole derivatives in regulating autophagy, A549 cells were treated with different doses (10, 20, and 30 μM) of compounds 14b and 14c for 24 h, and the autophagosome was detected by MDC (monodansylcadaverine) probe.
# A549 cells were seeded at a density of 2 × 10^3 cells per well in a 96-well plate and treated with compounds at concentrations of 0, 5, 10, 20, and 30 μM for 24 h. After treatment, the medium was replaced, and cells were stained with monodansylcadaverine for 1 h in the dark at 37°C. Cells were then imaged using a confocal microscope.
# [9] = tested on: A549; assay: CCK-8 cell viability assay and IC50 measurement; type: cell-based, human; conditions: Homo sapiens; for viability at 40 µM / inhibition at 40 µM: A549, 40 μM, 48 h; for viability at 40 µM: CCK-8, read-out: Cell viability (100%), 40 μM, 48 h, A549; for inhibition at 40 µM: read-out: inhibition rate
# Experimental: as §1, §2, §3
# [10] = A549, 48 h, read-out: IC50 48 h
# [11] = A549, 72 h, read-out: IC50 72 h
SMILES,viability at 40 µM [1] [%],viability at 40 µM [2] [%],viability at 40 µM [3] [%],viability at 40 µM [4] [%],"Dead cells ([5]; A549, 5 μM)","Dead cells ([5]; A549, 10 μM and 20 μM)","Live cells ([5]; A549, different concentrations (5, 10, 20 μM))","viability at 48 h, 40 µM [6] [%]",PARP expression [7],"cell cycle progression proteins cyclin D, cyclin E, and β-catenin [7]",ratio of LC3II to LC3I / LC3 (autophagy) [7],γ-H2AX protein expression [7],"autophagy (autophagosome, MDC probe) [8]","IC50 [9, 10] [µM]","IC50 [9, 11] [µM]",viability at 40 µM [9] [%],inhibition at 40 µM [9] [%],"live/dead cell numbers compared with compound 14b ([5]; A549, 5, 10, 20 μM)"
O=C1COc2ccc(NC(=O)c3cccc(-c4cn(-c5cccc(Br)c5)nn4)c3)cc2N1 [Compound 14b],98.02 ± 0.87,125 ± 2.78,114 ± 1.68,123 ± 2.08,increased,greatly and largely increased,consistently decreased,93.2 ± 0.61,not changed,not affected,increased,induced,autophagy was largely induced,25.1 ± 4.62,7.59 ± 0.31,27 ± 0.98,> 50,–
O=C1COc2ccc(NC(=O)c3cccc(-c4cn(-c5ccccc5F)nn4)c3)cc2N1 [Compound 14c],57.2 ± 4.16,65.3 ± 4.55,110 ± 2.45,125 ± 1.53,–,–,–,105 ± 2.38,–,not changed,not changed,increased expression,autophagy was largely induced,24.1 ± 3.83,18.5 ± 0.59,22.6 ± 0.88,> 50,The same results were also observed

# From article PMC12202533, “Mechanistic Insights and Anti-cancer Activity of 2H-benzo[b][1,4]oxazin-3(4H)-one Linked 1,2,3-Triazoles in Human Cancer Cells” (Frontiers in Pharmacology, 2025)
